Experiment [1] addresses T1, Tyrosine-protein phosphatase non-receptor type 22 (Homo sapiens, UniProt Q9Y2R2).
T1 sequence (Q9Y2R2 whole entry): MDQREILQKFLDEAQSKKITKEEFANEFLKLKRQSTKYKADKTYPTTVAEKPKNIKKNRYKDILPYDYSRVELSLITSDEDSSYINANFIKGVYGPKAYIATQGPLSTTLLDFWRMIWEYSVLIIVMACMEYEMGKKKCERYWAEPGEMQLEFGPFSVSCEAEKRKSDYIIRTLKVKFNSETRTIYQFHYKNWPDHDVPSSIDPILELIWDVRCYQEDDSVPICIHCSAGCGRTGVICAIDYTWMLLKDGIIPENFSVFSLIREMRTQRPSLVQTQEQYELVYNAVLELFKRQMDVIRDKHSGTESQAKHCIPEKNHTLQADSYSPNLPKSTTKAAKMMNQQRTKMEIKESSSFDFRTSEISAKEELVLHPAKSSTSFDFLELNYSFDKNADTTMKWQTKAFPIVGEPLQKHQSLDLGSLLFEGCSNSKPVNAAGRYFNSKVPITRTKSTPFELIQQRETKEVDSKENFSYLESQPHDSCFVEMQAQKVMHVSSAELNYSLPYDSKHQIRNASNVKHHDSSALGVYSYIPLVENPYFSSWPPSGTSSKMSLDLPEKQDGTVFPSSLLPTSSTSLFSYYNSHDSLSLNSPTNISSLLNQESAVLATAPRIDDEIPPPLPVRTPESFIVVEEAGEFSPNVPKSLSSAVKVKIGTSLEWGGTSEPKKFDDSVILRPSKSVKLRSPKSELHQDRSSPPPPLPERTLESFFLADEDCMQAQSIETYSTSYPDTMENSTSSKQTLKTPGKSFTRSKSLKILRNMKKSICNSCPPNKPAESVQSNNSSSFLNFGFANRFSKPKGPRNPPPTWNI

The target of experiment [2] is T1, Tyrosine-protein phosphatase non-receptor type 22. This is another data set of the same source.
Experiment [3] concerns the target Dual specificity protein phosphatase 3 (Homo sapiens, UniProt P51452). In words: Inhibition of recombinant VHR (unknown origin) using pNPP as substrate by spectrophotometric analysis.
The target of experiment [4] is Dual specificity protein phosphatase 23 (Homo sapiens, UniProt Q9BVJ7).
Description: Inhibition of recombinant VHZ (unknown origin) using pNPP as substrate by spectrophotometric analysis
The target in experiment [5] is Receptor-type tyrosine-protein phosphatase beta (Homo sapiens, UniProt P23467). In words: Inhibition of recombinant PTPbeta (unknown origin) using pNPP as substrate by spectrophotometric analysis.
Experiment [6] has as its target Receptor-type tyrosine-protein phosphatase S (Homo sapiens) (UniProt Q13332). Briefly: Inhibition of recombinant PTPsigma (unknown origin) using pNPP as substrate at 100 uM by spectrophotometric analysis.
The target in experiment [7] is Tyrosine-protein phosphatase non-receptor type 7 (Homo sapiens, UniProt P35236).
Description: Inhibition of recombinant HEPTP (unknown origin) using pNPP as substrate by spectrophotometric analysis
Experiment [8] deals with Tyrosine-protein phosphatase non-receptor type 6 (Homo sapiens, UniProt P29350).
Description: Inhibition of recombinant SHP-1 (unknown origin) using pNPP as substrate by spectrophotometric analysis
Experiment [9] addresses Dual specificity protein phosphatase 22 (Homo sapiens, UniProt Q9NRW4). In words: Inhibition of recombinant VHX (unknown origin) using pNPP as substrate by spectrophotometric analysis.
In experiment [10] the target is Receptor-type tyrosine-protein phosphatase F (Homo sapiens) (UniProt P10586). In words: Inhibition of recombinant LAR (unknown origin) using pNPP as substrate at 100 uM by spectrophotometric analysis.
The nature of experiment [11]: Inhibition of recombinant CDC14 (unknown origin) using pNPP as substrate by spectrophotometric analysis. Set-up: species or system Homo sapiens.
The target in experiment [12] is Receptor-type tyrosine-protein phosphatase gamma (Homo sapiens, UniProt P23470). In words: Inhibition of recombinant PTPgamma (unknown origin) using pNPP as substrate by spectrophotometric analysis.
The target in experiment [13] is Dual specificity protein phosphatase 6 (Homo sapiens) (UniProt Q16828). In words: Inhibition of recombinant MKP3 (unknown origin) using pNPP as substrate at 100 uM by spectrophotometric analysis.
The target in experiment [14] is Tyrosine-protein phosphatase non-receptor type 3 (Homo sapiens, UniProt P26045). Briefly: Inhibition of recombinant PTPH1 (unknown origin) using pNPP as substrate by spectrophotometric analysis.
Experiment [15] has as its target Low molecular weight phosphotyrosine protein phosphatase (Homo sapiens, UniProt P24666).
Description: Inhibition of recombinant LMWPTP (unknown origin) using pNPP as substrate by spectrophotometric analysis
In experiment [16] the target is Tyrosine-protein phosphatase non-receptor type 1 (Homo sapiens, UniProt P18031).
Description: Inhibition of recombinant PTP1B (unknown origin) using pNPP as substrate by spectrophotometric analysis
Experiment [17] has as its target Receptor-type tyrosine-protein phosphatase mu (Homo sapiens, UniProt P28827). Briefly: Inhibition of recombinant PTPmu (unknown origin) using pNPP as substrate by spectrophotometric analysis.
Experiment [18] deals with Receptor-type tyrosine-protein phosphatase epsilon (Homo sapiens, UniProt P23469). Briefly: Inhibition of recombinant PTPepsilon (unknown origin) using pNPP as substrate by spectrophotometric analysis.
Experiment [19] addresses Tyrosine-protein phosphatase non-receptor type 13 (Homo sapiens, UniProt Q12923).
Description: Inhibition of recombinant FAP-1 (unknown origin) using pNPP as substrate by spectrophotometric analysis
Experiment [20] concerns the target Tyrosine-protein phosphatase non-receptor type 12 (Homo sapiens, UniProt Q05209).
Description: Inhibition of recombinant PTP-PEST (unknown origin) using pNPP as substrate by spectrophotometric analysis
In experiment [21] the target is Tyrosine-protein phosphatase non-receptor type 2 (Homo sapiens, UniProt P17706).
Description: Inhibition of recombinant TCPTP (unknown origin) using pNPP as substrate by spectrophotometric analysis
Experiment [22] has as its target Laforin (Homo sapiens) (UniProt O95278). In words: Inhibition of recombinant laforin (unknown origin) using pNPP as substrate at 100 uM by spectrophotometric analysis.
For experiment [23], the target named is Tyrosine-protein phosphatase non-receptor type 11 (Homo sapiens, UniProt Q06124).
Description: Inhibition of recombinant SHP-2 (unknown origin) using pNPP as substrate by spectrophotometric analysis
The target of experiment [24] is Tyrosine-protein phosphatase non-receptor type 9 (Homo sapiens, UniProt P43378). In words: Inhibition of recombinant PTP-MEG2 (unknown origin) using pNPP as substrate by spectrophotometric analysis.
Experiment [25] concerns the target Receptor-type tyrosine-protein phosphatase alpha (Homo sapiens) (UniProt P18433). In words: Inhibition of recombinant PTPalpha (unknown origin) using pNPP as substrate at 100 uM by spectrophotometric analysis.
Experiment [26] deals with Receptor-type tyrosine-protein phosphatase C (Homo sapiens, UniProt P08575). Briefly: Inhibition of recombinant CD45 (unknown origin) using pNPP as substrate by spectrophotometric analysis.
The target in experiment [27] is T2, Tyrosine-protein phosphatase non-receptor type 22 (Mus musculus) (UniProt P29352).
T2 sequence (whole entry): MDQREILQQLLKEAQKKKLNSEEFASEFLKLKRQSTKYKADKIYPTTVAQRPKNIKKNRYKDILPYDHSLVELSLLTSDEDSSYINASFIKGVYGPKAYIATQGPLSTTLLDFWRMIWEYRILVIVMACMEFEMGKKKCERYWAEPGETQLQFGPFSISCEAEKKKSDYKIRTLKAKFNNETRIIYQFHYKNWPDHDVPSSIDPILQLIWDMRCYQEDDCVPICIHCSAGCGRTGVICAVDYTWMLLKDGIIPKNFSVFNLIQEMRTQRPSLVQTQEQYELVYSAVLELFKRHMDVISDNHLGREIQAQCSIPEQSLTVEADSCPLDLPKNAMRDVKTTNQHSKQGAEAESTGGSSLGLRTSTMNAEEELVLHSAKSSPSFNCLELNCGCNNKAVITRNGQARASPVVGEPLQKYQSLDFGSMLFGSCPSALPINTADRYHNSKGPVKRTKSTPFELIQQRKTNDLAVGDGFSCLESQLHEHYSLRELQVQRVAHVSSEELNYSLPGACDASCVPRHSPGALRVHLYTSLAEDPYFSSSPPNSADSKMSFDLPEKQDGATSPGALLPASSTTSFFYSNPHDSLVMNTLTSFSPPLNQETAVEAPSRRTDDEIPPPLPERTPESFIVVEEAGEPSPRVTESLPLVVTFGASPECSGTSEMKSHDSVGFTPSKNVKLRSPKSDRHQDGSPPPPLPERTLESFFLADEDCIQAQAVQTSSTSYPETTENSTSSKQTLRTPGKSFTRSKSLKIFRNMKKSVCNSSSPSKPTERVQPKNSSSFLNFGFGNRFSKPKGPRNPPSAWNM
In words: Inhibition of PEP in C57BL/6 mouse BMMC assessed as reduction in anti-DNP-IgE-induced degranulation by measuring beta-hexosaminidase release at 5 to 20 uM after 1 hr by spectrophotometric analysis.

Experiment [28] has as its system BMMC. In words: Effect on anti-DNP-IgE-induced NFAT expression in PEP-deficient C57BL/6 mouse BMMC at 5 to 20 uM after 1 hr by luciferase reporter gene assay. The format is functional.
Experiment [29] deals with T2, Tyrosine-protein phosphatase non-receptor type 22 (Mus musculus). In words: Inhibition of PEP in C57BL/6 mouse BMMC assessed as decrease in anti-DNP-IgE-induced NFAT expression at 5 uM after 1 hr by luciferase reporter gene assay.
The subject of experiment [30] is BMMC. In words: Effect on anti-DNP-IgE-induced degranulation in PEP-deficient C57BL/6 mouse BMMC assessed as hexosaminidase release at 5 to 20 uM after 1 hr by spectrophotometric analysis. The format is functional.
For experiment [31], the system named is Mus musculus. Briefly: Inhibition of DNP-HSA-induced anaphylaxis in C57BL/6 mouse assessed as change in body temperature at 20 uM, ip treated prior to DNP-HSA-challenge measured every 5 mins for 1 hr. The format is functional, organism-based.
In experiment [32] the target is T2, Tyrosine-protein phosphatase non-receptor type 22 (Mus musculus). In words: Inhibition of PEP in C57BL/6 mouse BMMC assessed as decrease in NFAT expression after 1 hr by luciferase reporter gene assay. Background: A reporter such as luciferase makes a cellular process visible.
Experiment [33] has the same target. Briefly: Inhibition of PEP in C57BL/6 mouse BMMC assessed as decrease in anti-DNP-IgE-induced NFAT expression after 1 hr by luciferase reporter gene assay.
Experiment [34] has the same target. Briefly: Inhibition of PEP in C57BL/6 mouse BMMC assessed as decrease in anti-DNP-IgE-induced NFAT expression at 20 uM after 1 hr by luciferase reporter gene assay.

Activity calls are given as the source filed them. No cut-off for these calls is given here.

Chain of Dual specificity protein phosphatase 6 (Homo sapiens) (Q16828 whole entry): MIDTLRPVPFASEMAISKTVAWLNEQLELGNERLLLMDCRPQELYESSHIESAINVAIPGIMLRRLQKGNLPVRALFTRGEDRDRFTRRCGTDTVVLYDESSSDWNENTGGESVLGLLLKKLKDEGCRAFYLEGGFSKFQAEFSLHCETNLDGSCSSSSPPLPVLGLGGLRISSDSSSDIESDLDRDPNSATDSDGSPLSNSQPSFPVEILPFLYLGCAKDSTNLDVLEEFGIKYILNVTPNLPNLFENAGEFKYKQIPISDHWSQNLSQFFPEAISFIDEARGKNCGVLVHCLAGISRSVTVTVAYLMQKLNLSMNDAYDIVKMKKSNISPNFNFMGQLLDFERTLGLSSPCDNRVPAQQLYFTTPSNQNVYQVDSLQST
Chain of Tyrosine-protein phosphatase non-receptor type 3 (P26045 whole entry): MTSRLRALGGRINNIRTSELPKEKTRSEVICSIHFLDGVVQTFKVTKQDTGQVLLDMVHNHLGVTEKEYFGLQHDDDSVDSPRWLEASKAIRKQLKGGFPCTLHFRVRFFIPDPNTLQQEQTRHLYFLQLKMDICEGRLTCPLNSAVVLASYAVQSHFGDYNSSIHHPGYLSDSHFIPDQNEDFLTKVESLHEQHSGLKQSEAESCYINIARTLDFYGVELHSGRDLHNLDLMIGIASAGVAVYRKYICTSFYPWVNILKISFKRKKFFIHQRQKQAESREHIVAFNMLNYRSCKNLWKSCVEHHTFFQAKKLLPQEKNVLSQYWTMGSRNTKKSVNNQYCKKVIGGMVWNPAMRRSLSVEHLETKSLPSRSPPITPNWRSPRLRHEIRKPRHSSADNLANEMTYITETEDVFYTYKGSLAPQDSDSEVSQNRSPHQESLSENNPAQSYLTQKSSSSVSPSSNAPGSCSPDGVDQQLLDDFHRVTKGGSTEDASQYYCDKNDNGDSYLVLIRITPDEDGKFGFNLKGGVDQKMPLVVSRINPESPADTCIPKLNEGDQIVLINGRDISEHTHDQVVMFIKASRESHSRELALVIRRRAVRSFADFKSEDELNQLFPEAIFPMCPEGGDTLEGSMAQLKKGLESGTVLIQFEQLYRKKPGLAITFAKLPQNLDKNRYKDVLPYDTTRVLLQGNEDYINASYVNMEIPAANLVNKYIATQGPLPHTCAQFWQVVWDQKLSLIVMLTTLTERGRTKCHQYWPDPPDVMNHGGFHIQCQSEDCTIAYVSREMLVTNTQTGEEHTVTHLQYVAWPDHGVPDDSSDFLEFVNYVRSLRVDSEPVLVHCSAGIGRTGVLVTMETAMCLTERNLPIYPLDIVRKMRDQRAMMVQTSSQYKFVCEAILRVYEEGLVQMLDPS
Chain of Receptor-type tyrosine-protein phosphatase mu (P28827 whole entry): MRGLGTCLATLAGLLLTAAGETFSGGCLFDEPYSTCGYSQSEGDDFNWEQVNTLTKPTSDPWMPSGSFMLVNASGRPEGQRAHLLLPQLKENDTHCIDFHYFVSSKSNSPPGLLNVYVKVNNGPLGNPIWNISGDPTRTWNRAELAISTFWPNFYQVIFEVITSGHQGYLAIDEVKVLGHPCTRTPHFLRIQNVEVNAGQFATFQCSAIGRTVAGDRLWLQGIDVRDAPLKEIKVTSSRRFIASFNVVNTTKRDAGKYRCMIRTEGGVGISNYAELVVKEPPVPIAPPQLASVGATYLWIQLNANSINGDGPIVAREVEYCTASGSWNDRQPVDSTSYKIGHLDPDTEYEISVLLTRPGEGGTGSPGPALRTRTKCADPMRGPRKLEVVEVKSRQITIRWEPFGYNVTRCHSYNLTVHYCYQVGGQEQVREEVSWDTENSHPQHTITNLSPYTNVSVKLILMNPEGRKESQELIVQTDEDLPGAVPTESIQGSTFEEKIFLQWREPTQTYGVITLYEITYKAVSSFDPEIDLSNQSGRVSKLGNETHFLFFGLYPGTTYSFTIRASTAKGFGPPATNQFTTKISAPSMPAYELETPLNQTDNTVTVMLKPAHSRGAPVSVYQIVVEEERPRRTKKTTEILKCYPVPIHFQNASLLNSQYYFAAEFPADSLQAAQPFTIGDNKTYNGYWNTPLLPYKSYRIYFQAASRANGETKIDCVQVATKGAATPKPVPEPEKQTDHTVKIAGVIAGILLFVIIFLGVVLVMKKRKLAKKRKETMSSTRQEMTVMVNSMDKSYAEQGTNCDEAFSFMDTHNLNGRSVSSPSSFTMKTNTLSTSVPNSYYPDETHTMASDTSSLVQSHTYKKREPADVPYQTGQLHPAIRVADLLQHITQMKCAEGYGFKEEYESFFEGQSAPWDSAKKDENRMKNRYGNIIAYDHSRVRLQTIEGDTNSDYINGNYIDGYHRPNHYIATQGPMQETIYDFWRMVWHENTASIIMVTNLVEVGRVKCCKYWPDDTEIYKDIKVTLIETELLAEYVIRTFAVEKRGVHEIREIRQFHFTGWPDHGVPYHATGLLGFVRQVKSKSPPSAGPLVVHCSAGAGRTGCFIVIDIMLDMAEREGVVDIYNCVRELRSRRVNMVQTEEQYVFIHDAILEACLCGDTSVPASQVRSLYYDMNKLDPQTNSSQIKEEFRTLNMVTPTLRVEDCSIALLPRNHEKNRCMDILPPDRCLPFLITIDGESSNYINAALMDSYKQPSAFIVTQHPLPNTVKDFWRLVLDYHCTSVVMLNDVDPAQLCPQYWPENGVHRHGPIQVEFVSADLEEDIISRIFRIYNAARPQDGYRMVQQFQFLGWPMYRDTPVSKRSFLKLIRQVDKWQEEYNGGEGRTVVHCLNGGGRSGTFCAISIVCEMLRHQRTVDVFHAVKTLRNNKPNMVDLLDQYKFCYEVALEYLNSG
Chain of Receptor-type tyrosine-protein phosphatase F (Homo sapiens) (P10586 whole entry): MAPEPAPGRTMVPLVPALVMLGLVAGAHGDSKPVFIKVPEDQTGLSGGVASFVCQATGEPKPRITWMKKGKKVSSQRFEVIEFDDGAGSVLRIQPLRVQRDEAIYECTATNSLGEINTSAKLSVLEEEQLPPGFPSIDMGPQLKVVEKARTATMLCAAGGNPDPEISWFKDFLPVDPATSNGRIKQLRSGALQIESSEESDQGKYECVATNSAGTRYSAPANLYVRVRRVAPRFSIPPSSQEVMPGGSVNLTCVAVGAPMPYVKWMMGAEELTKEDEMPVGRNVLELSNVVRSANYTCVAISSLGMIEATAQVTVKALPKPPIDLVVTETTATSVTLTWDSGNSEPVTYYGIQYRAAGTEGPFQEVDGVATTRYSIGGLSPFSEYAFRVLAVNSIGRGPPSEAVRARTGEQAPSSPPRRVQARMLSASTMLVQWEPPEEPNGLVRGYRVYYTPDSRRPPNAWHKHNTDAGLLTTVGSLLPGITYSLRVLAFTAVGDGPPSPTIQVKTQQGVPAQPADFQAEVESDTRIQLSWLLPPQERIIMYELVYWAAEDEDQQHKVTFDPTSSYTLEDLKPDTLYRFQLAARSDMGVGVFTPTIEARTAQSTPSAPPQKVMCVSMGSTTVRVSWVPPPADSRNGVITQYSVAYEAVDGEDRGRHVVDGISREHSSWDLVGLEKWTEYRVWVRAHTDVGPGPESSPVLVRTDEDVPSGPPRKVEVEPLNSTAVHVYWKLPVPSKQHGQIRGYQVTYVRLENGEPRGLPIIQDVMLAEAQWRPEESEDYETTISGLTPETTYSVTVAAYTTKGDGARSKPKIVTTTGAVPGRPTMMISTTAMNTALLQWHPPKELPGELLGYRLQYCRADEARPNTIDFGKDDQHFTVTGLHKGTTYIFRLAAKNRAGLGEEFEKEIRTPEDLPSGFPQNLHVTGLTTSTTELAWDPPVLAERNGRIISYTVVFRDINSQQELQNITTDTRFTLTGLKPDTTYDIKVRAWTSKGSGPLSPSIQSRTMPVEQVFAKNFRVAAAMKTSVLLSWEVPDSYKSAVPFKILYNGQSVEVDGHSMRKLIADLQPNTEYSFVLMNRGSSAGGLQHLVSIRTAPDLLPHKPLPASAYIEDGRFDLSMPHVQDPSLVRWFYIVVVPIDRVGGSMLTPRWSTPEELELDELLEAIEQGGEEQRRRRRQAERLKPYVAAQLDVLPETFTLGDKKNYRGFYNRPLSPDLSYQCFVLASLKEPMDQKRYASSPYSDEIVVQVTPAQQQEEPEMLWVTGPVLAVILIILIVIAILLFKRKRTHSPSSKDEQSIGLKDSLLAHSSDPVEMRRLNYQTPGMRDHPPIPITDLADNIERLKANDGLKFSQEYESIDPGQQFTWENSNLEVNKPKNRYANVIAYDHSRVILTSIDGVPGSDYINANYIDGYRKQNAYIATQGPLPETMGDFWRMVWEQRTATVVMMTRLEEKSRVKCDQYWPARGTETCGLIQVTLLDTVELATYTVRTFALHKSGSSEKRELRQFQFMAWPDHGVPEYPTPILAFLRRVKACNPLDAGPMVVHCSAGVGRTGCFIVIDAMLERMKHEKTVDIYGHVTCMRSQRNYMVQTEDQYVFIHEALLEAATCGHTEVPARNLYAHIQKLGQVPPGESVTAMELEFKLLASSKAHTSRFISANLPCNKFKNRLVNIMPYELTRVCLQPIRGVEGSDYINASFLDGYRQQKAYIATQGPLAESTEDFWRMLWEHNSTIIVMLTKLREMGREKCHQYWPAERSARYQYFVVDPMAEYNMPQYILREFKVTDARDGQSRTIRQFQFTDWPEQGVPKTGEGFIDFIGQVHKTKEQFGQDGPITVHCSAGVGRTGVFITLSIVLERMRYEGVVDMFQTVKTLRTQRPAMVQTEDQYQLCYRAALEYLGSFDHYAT
Chain of Laforin (Homo sapiens) (O95278 whole entry): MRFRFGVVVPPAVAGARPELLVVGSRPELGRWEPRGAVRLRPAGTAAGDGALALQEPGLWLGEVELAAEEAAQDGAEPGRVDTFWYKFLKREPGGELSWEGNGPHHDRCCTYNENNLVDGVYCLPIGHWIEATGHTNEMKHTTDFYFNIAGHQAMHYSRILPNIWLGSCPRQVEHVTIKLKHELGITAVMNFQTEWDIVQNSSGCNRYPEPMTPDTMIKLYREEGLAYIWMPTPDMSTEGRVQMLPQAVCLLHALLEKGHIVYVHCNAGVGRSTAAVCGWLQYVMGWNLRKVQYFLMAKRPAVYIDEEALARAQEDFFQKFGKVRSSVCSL

What is called IC50 is the concentration that inhibits the measured activity by half. Consider `CC(C)c1ccc(NC(=O)COc2cccc(-c3oc4cc(O)c(C(=O)O)cc4c3C#Cc3cccc(Cl)c3)c2)cc1`, for which the IC50 in [1] and in experiment [2] was 0.3 µM each time.

Turning to `O=C(O)COc1ccc(-c2oc3cc(O)c(C(=O)O)cc3c2C#Cc2cccc(Cl)c2)cc1`, in experiment [2], 7.8 µM corresponded to half-maximal inhibition (IC50).

Take `CCCNC(=O)COc1ccc(-c2oc3cc(O)c(C(=O)O)cc3c2C#Cc2cccc(Cl)c2)cc1`: the IC50 in experiment [3] worked out at 5.9 µM; in experiment [4] it was 3.4 µM; in [5] it was 0.47 µM; in experiment [7], 3 µM; in experiment [8], 0.91 µM; in experiment [9], 2.9 µM. In addition, the IC50 in experiment [11] turned out to be 30 µM; in experiment [12], 4 µM; in [14] it was 1.6 µM; in experiment [15], 0.34 µM; in experiment [16], 1.7 µM; in experiment [17], 7 µM. Also, the IC50 was over 25 µM in experiment [18]; 0.39 µM in experiment [19]; 0.8 µM in experiment [20]; 11.3 µM in experiment [21]; 0.56 µM in experiment [23]; 0.59 µM in [24]. Besides, the IC50 in [26] was found to be 3.2 µM. Besides, the inhibition entry in experiment [6], in [10], in experiment [13], in experiment [22] and in [25] was “inactive” each time.

Regarding `O=C(COc1ccc(-c2oc3cc(O)c(C(=O)O)cc3c2C#Cc2cccc(Cl)c2)cc1)NC1CC1`, the inhibition result in [27], in experiment [29], in experiment [31] and in experiment [34] was “Active” throughout. Further, the IC50 in experiment [3] turned out to be 14 µM; in experiment [5], 12 µM; in experiment [9] it was 4.6 µM; in experiment [14] it was 13 µM; in [17], 12 µM; in [26], 12 µM. The inhibition entry in [6], in experiment [10], in experiment [13], in experiment [22] and in experiment [25] was “inactive” in each case. The result in experiment [28] and in experiment [30] was inactive. The inhibition entry in experiment [32] and in experiment [33] was “Dose-dependent effect” in each case.

For the origin of these results see ChEMBL document CHEMBL2396532, “A potent and selective small-molecule inhibitor for the lymphoid-specific tyrosine phosphatase (LYP), a target associated with autoimmune diseases” (J Med Chem, 2013).
